Literature values in patent US9662346B2, “Method of treating hyperesthesia, paresthesia, dolor, and pruritus caused by insect stings or noxious weeds or plants using avermectin compound” (priority 2007, dated 2017).

Key:
head lice = conditions: single topical application
[1] = oral dosage of a moderate ivermectin concentration

For ivermectin, the “effect on head lice” value (head lice) is given as “curative effect” and the safety in human [1] is given as “safe in human, without serious adverse side effects”.
